Target: T1, TcAK (T. cruzi arginine kinase) (Trypanosoma cruzi, UniProt O96507)
T1 sequence (O96507 1-357): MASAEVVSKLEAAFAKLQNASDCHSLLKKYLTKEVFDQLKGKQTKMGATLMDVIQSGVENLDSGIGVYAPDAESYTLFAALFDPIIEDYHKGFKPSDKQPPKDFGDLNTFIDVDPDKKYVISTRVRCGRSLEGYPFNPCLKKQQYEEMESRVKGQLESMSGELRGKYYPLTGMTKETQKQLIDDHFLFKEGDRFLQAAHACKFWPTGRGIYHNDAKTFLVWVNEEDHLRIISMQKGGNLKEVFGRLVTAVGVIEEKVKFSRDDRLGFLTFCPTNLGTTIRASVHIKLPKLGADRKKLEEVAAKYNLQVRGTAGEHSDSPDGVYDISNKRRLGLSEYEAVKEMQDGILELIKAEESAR
Assay: coupled pyruvate kinase / lactate dehydrogenase assay, NADH absorbance at […] nm
Type: biochemical

Structure (SMILES): COc1cc(CNC(=O)CCCC/C=C/C(C)C)ccc1O [capsaicin, (E)-N-(4-hydroxy-3-methoxybenzyl)-8-methyl-6-nonenamide]
- IC50: ~800 µM

Reference: doi:10.1101/2020.06.23.167346v1 (biorxiv, 2020)
